Results from patent publication US12435087B2, “Modulators of DCN-1 and methods of use thereof” (Cellarity, Inc., priority 2023, dated 2025).
Like-named read-outs stand apart in the source and are kept apart here.

Molecular target: DCN1 (DCUND1) protein PONY domain (Homo sapiens (Human), UniProt Q96GG9)
Assay: TR-FRET assay (binding to DCN-1, displacement of FAM-labeled probe)
Description: (§1) The TR-FRET assay was designed following the Scott et al. protocol (Scott et al., Nat Chem Biol. 2017 August; 13(8): 850-857. doi:10.1038/nchembio.2386). The recombinant form of the DCN1 (DCUND1) protein PONY domain was produced using an E. coli expression system at Viva Biotech (China). The DCN1 protein was biotinylated (EZ sulfo-NHS-LC-biotin; Thermofisher) for labeling with streptavidin terbium (Tb) cryptate in the reaction. The probe was changed to a non-covalent DCN1 inhibitor labeled with carboxyfluorescein (FAM; Zhou et al., Nat Commun. 2017; 8: 1150. doi: 10.1038/s41467-017-01243-7). Buffer conditions were modified to enhance protein stability by exchanging Tween20 for TritonX and increasing NaCl to 200 mM. The compounds were screened against 5 nM DCN1 and 20 nM FAM-probe or 0.31 nM DCN1 and 900 nM total probe (100 nM FAM-labeled plus 800 nM unlabeled). The TR-FRET ratio between Tb-DCN1 and the FAM-labeled probe was measured in a 384-well opti-plate (Perkin Elmer) using a plate reader (BMG) at 1, 5, and 24 hrs after treatment with compound (final DMSO concentration of 0.1%). The ratio was normalized to the high (DCN1 and FAM-probe) and low (DCN1 and no probe) controls for a readout of % activity (=100*(x−low)/(high−low).
A TR-FRET assay was performed to evaluate the ability of the compounds to bind the DCN-1 protein.
as §1, with “850-857. Doi: 10.1038/nchembio.2386).” for “850-857. doi:10.1038/nchembio.2386).”, “the DCNI” for “the DCN1”, “1150. Doi:” for “1150. doi:”, “0.1%).” for “0.1%). The ratio was normalized to the high (DCN1 and FAM-probe) and low (DCN1 and no probe) controls for a readout of % activity (=100*(x−low)/(high−low).”

[1] = 24 hr after treatment with compound, read-out: TR FRET IC50 24 hr
[2] = TR FRET IC50 1 hr (nM), 1 hr after treatment with compound
[3] = read-out: TR FRET IC50 1 hr, 1 hr after treatment with compound

Chain of DCN1 (DCUND1) protein PONY domain (Q96GG9 60-248): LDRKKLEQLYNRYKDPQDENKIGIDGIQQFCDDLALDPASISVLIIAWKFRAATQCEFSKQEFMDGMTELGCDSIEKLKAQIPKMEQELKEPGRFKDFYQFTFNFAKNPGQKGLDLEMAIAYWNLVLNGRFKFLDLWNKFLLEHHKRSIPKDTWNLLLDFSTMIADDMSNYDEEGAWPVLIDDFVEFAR

C=C(F)C(=O)Nc1cccc([C@H]2c3c(C)nn(-c4ccccc4)c3N(CC)C(=O)[C@@H]2NC(=O)c2cccc(C(F)(F)F)c2)c1 (racemic) [Compound I-140, N-((4S,5R)-7-ethyl-4-(3-(2-fluoroacrylamido)phenyl)-3-methyl-6-oxo-1-phenyl-4,5,6,7-tetrahydro-1H-pyrazolo[3,4-b]pyridin-5-yl)-3(trifluoromethyl) benzamide]
IC50 [1]: > 3000 nM | IC50 [2]: > 3000 nM

CCN1C(=O)[C@@H](NC(=O)c2cccc(C(F)(F)F)c2)[C@H](c2cccc(CNC(=O)/C=C/C(=O)OC)c2)c2cnn(-c3ccccc3)c21 (racemic) [Compound I-143]
IC50 [1]: 200 to 1000 nM | IC50 [2]: 1000 to 3000 nM

CCN1C(=O)[C@@H](NC(=O)c2cccc(C(F)(F)F)c2)[C@H](c2cccc(NC(=O)/C(C)=C/C(=O)OC)c2)c2c(C)nn(-c3ccccc3)c21 (racemic) [Compound I-145]
IC50 [1]: 200 to 1000 nM | IC50 [2]: 1000 to 3000 nM

C=C(CN1CCOCC1)C(=O)Nc1cccc([C@H]2c3c(C)nn(-c4ccccc4)c3N(CCO)C(=O)[C@@H]2NC(=O)c2cccc(C(F)(F)F)c2)c1 (racemic) [Compound I-147, rac-N-((4R,5S)-7-(2-hydroxyethyl)-3-methyl-4-(3-(2-(morpholinomethyl)acrylamido)phenyl)-6-oxo-1-phenyl-4,5,6,7-tetrahydro-1H-pyrazolo[3,4-b]pyridin-5-yl)-3-(trifluoromethyl)benzamide]
IC50 [1]: ≤ 200 nM | IC50 [2]: ≤ 200 nM

CCN1C(=O)[C@@H](NC(=O)c2cccc(C(F)(F)F)c2)[C@@H](c2cccc(NC(=O)C3=CCN(C)C3)c2)c2c(C)nn(-c3ccccc3)c21 (racemic) [Compound I-148]
IC50 [1]: 200 to 1000 nM | IC50 [2]: 1000 to 3000 nM

CCN1C(=O)[C@@H](NC(=O)c2cccc(C(F)(F)F)c2)[C@H](c2ccccc2CNC#N)c2c(C)nn(-c3ccccc3)c21 (racemic) [Compound I-149]
IC50 [1]: 200 to 1000 nM | IC50 [2]: 1000 to 3000 nM

C=C(CN1CCOCC1)C(=O)NCc1ccccc1[C@@H]1c2cnn(-c3ccccc3)c2N(CC)C(=O)[C@H]1NC(=O)c1cccc(C(F)(F)F)c1 (racemic) [Compound I-153]
IC50 [1]: ≤ 200 nM | IC50 [3]: ≤ 200 nM

CCN1C(=O)[C@@H](NC(=O)c2cccc(C(F)(F)F)c2)[C@H](c2cccc(NC(=O)/C=C(\C)C(=O)OC)c2)c2c(C)nn(-c3ccccc3)c21 (racemic) [Compound I-157]
IC50 [1]: 200 to 1000 nM | IC50 [2]: 1000 to 3000 nM

CCN1C(=O)[C@H](NC(=O)c2cccc(C(F)(F)F)c2)[C@@H](c2cccc(NC(=O)/C=C/CN(C)C)c2)c2c(CN(C)C)nn(-c3ccccc3)c21 (racemic) [Compound I-212, ˜{N}—[˜{rac}-(4˜{S},5˜{R})-3-[(dimethylamino)methyl]-7-ethyl-6-oxo-1-phenyl-4-[3-[[˜{rac}-(˜{E})-4-(dimethylamino)but-2-enoyl]amino]phenyl]-4,5-dihydropyrazolo[3,4-b]pyridin-5-yl]-3-(trifluoromethyl)benzamide]
IC50 [1]: ≤ 200 nM | IC50 [2]: 200 to 1000 nM

CCN1C(=O)[C@H](NC(=O)c2cccc(C(F)(F)F)c2)[C@@H](c2cccc(NC(=O)/C=C/CN(C)C)c2)c2c(CO)nn(-c3ccccc3)c21 (racemic) [Compound I-213, ˜{N}—[˜{rac}-(4˜{S},5˜{R})-7-ethyl-3-(hydroxymethyl)-6-oxo-1-phenyl-4-[3-[[˜{rac}-(˜{E})-4-(dimethylamino)but-2-enoyl]amino]phenyl]-4,5-dihydropyrazolo[3,4-b]pyridin-5-yl]-3-(trifluoromethyl)benzamide]
IC50 [1]: 200 to 1000 nM | IC50 [2]: 1000 to 3000 nM

C/C=C(/CN1CCN(C2COC2)CC1)C(=O)NCc1cccc([C@@H]2c3cnn(-c4ccccc4)c3N(CC)C(=O)[C@H]2NC(=O)c2nccc(C(F)(F)F)n2)c1 (racemic) [Compound I-257]
IC50 [1]: 1000 to 3000 nM | IC50 [2]: 1000 to 3000 nM

CCN1C(=O)[C@@H](NC(=O)c2nccc(C(F)(F)F)n2)[C@H](c2ccccc2/C=C/C#N)c2cnn(-c3ccccc3)c21 (racemic) [Compound I-259, rac-N-((4R,5S)-4-(2-((E)-2-cyanovinyl)phenyl)-7-ethyl-6-oxo-1-phenyl-4,5,6,7-tetrahydro-1H-pyrazolo[3,4-b]pyridin-5-yl)-4-(trifluoromethyl)pyrimidine-2-carboxamide]
IC50 [1]: 1000 to 3000 nM | IC50 [2]: 1000 to 3000 nM

CCN1C(=O)[C@@H](NC(=O)c2nccc(C(F)(F)F)n2)[C@H](c2ccccc2/C=C\C#N)c2cnn(-c3ccccc3)c21 (racemic) [Compound I-260, rac-N-((4R,5S)-4-(2-((Z)-2-cyanovinyl)phenyl)-7-ethyl-6-oxo-1-phenyl-4,5,6,7-tetrahydro-1H-pyrazolo[3,4-b]pyridin-5-yl)-4-(trifluoromethyl)pyrimidine-2-carboxamide]
IC50 [1]: 1000 to 3000 nM | IC50 [2]: 1000 to 3000 nM

CCN1C(=O)[C@@H](NC(=O)c2nccc(C(F)(F)F)n2)[C@H](c2cccc(NC(=O)/C=C/C(=O)N3CCCC3)c2)c2c(C)nn(-c3ccccc3)c21 (racemic) [Compound I-262]
IC50 [1]: 1000 to 3000 nM | IC50 [2]: 1000 to 3000 nM

CCN1C(=O)[C@@H](NC(=O)c2nccc(C(F)(F)F)n2)[C@H](c2cccc(NC(=O)/C=C/CN(C)C)n2)c2cnn(-c3ccccc3)c21 (racemic) [Compound I-265]
IC50 [1]: 200 to 1000 nM | IC50 [2]: 200 to 1000 nM

CCN1C(=O)[C@@H](NC(=O)c2nccc(C(F)(F)F)n2)[C@H](c2cccc(NC(=O)C3=CCC3)n2)c2cnn(-c3ccccc3)c21 (racemic) [Compound I-279]
IC50 [1]: 1000 to 3000 nM | IC50 [2]: 1000 to 3000 nM

CCN1C(=O)[C@@H](NC(=O)c2cccc(C(F)(F)F)c2)[C@H](c2cccc3c2CN(C#N)C3)c2cnn(-c3ccccc3)c21 (racemic) [Compound I-282, rac-N-((4R,5S)-4-(2-cyanoisoindolin-4-yl)-7-ethyl-6-oxo-1-phenyl-4,5,6,7-tetrahydro-1H-pyrazolo[3,4-b]pyridin-5-yl)-3-(trifluoromethyl)benzamide]
IC50 [1]: 1000 to 3000 nM | IC50 [2]: 1000 to 3000 nM

CCN1C(=O)[C@@H](NC(=O)c2nccc(C(F)(F)F)n2)[C@H](c2cccc(NC(=O)/C=C/C(=O)OC(C)(C)C)c2)c2c(C)nn(-c3ccccc3)c21 (racemic) [Compound I-359, rac-tert-butyl (E)-4-((3-((4R,5S)-7-ethyl-3-methyl-6-oxo-1-phenyl-5-(4-(trifluoromethyl)pyrimidine-2-carboxamido)-4,5,6,7-tetrahydro-1H-pyrazolo[3,4-b]pyridin-4-yl)phenyl)amino)-4-oxobut-2-enoate]
IC50 [1]: ≤ 200 nM | IC50 [2]: 1000 to 3000 nM

CCN1C(=O)[C@@H](NC(=O)c2nccc(C(F)(F)F)n2)[C@H](c2cccc(C(=O)N(C)CC#N)c2)c2cnn(-c3ccccc3)c21 (racemic) [Compound I-370]
IC50 [1]: 1000 to 3000 nM | IC50 [2]: 1000 to 3000 nM

CCN1C(=O)[C@@H](NC(=O)c2nccc(C(F)(F)F)n2)[C@H](c2cccc(NC(=O)C3=CCN(C)C3)n2)c2cnn(-c3ccccc3)c21 (racemic) [Compound I-376, rac-N-((4R,5S)-7-ethyl-4-(6-(1-methyl-2,5-dihydro-1H-pyrrole-3-carboxamido)pyridin-2-yl)-6-oxo-1-phenyl-4,5,6,7-tetrahydro-1H-pyrazolo[3,4-b]pyridin-5-yl)-4-(trifluoromethyl)pyrimidine-2-carboxamide]
IC50 [1]: ≤ 200 nM | IC50 [2]: 200 to 1000 nM

C=C(CN1CCOCC1)C(=O)NCc1cccc([C@@H]2c3cnn(-c4ccccc4)c3N(CC)C(=O)[C@H]2NC(=O)c2ccn(C)n2)c1 (single isomer, unassigned) [Compound I-51]
IC50 [3]: 1000 to 3000 nM

C=C(C(=O)NCc1cccc([C@@H]2c3cnn(-c4ccccc4)c3N(CC)C(=O)[C@H]2NC(=O)c2nccc(C(F)(F)F)n2)c1)[C@H](C)N(C)C1COC1 (single isomer, unassigned) [Compound I-382]
IC50 [2]: 200 to 1000 nM

CCN1C(=O)C(NC(=O)c2cccc(C(F)(F)F)c2)[C@@H](c2cccc(NC(=O)C(Cl)Cl)c2)c2c(C)nn(-c3ccccc3)c21 (stereo in doubt) [Compound I-42, N-((4S,5R)-4-(3-(2,2-dichloroacetamido)phenyl)-7-ethyl-3-methyl-6-oxo-1-phenyl-4,5,6,7-tetrahydro-1H-pyrazolo[3,4-b]pyridin-5-yl)-3-(trifluoromethyl)benzamide]
IC50 [1]: 1000 to 3000 nM | IC50 [3]: > 3000 nM
